{"source": "patent US7135336B1", "about": "“Use of Xenopus laevis oocytes a microincubators” (University of South Florida, priority 2004, dated 2006)", "target": "T1, human α4/β2 nicotinic receptors (Homo sapiens, UniProt P17787+P43681)", "T1 construct": "expressed in transfected cells; host or cells: Xenopus laevis oocytes injected with α4/β2 RNA (BMSC-injected and non-injected control oocytes)", "T1 sequence (P43681 29-627 limits assumed)": "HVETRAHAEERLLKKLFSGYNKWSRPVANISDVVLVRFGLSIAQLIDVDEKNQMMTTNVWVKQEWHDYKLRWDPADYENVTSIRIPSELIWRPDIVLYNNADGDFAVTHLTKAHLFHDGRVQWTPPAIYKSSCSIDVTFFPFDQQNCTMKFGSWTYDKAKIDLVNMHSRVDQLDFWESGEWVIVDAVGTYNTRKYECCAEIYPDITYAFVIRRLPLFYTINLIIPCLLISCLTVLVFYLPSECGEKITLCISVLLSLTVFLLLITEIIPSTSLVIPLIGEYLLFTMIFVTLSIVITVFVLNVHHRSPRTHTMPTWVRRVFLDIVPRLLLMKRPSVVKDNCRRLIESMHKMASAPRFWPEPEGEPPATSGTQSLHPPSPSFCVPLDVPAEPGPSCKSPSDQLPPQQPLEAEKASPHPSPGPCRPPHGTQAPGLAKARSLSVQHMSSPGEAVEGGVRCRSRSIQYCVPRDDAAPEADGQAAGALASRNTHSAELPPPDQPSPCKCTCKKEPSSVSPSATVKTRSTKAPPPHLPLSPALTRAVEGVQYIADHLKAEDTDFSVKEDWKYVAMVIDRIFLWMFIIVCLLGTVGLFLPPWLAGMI", "T1 sequence (P17787 26-502)": "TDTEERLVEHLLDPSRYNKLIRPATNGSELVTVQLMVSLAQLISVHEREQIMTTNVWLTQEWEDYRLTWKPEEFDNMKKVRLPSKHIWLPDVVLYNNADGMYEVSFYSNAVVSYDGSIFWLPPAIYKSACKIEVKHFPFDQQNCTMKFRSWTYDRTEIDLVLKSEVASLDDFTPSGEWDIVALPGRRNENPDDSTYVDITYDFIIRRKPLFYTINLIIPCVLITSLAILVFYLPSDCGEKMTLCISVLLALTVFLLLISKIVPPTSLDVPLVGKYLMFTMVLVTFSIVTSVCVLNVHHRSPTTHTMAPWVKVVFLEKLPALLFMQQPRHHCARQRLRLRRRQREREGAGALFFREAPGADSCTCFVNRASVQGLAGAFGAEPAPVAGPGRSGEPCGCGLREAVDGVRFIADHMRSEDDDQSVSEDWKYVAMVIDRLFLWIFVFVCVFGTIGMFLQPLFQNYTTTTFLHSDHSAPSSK", "assay": "Two electrode voltage clamp recordings of acetylcholine chloride concentration response in Xenopus laevis oocytes expressing human α4/β2 nicotinic receptors", "format": "cell-based", "experimental": "Electrophysiological Recordings. The last set of experiments was designed to investigate survival and lifespan differences between frog oocytes injected with BMSC and non-injected oocytes. Both groups were carefully maintained under the same conditions for a prolonged period of time. […] Whole cell currents were measured at room temperature, 48 hours after RNA injection.\nFinally, the last set of experiments was devoted to the study of the longevity of recipient oocytes with control test for their functional activity in the form of ability of oocytes to express α4/β2 subunits of human nicotinic receptors in their membranes 48h after RNA injection.", "key": {"[1]": {"conditions": "BMSC injected 44 day old oocytes"}}}
{"smiles": "CC(=O)OCC[N+](C)(C)C.[Cl-]", "note": "[Ach, acetylcholine chloride]", "values": [{"measurement": "nH1 (high-affinity Hill coefficient)", "setting": "[1]", "value": 0.51}, {"measurement": "nH2 (low-affinity Hill coefficient)", "setting": "[1]", "value": 3.0}, {"measurement": "times lower concentration of agonist for 50% of Ach evoked peak current amplitude, BMSC injected vs control oocytes", "setting": "high-affinity sites", "value": 2.7, "unit": "times"}, {"measurement": "times lower concentration of Ach for 50% of peak current, BMSC injected vs control oocytes", "setting": "low affinity sites", "value": 3.8, "unit": "times"}, {"measurement": "nH1 (high-affinity Hill coefficient)", "setting": "non-injected control oocytes", "value": 0.68}, {"measurement": "nH2 (low-affinity Hill coefficient)", "setting": "non-injected control oocytes", "value": 2.6}]}
